In patent US20230040402A1, “ANTITUMOR DRUG FOR USE IN COMBINATION WITH IMMUNE CHECKPOINT INHIBITOR” (NIPPON SHINYAKU CO., LTD., priority 2019, published 2023):

Key:
[1] = tested on: mouse colorectal cancer cell line CT26; test: Test Example 3: mPGES-1 inhibitor and anti-mouse PD-1 antibody in combination in allograft model of mouse colorectal cancer cell line CT26; assay type: in vivo; conditions: female BALB/c mouse, tumor volume on 21st day
Description: (§1) On the day of transplantation, after the culture supernatant was removed, CT26 was washed with HBSS and collected. Collected CT26 was suspended in HBSS and used as cells for transplantation.
Under anesthesia, 3.0x10^5 cells for transplantation were subcutaneously transplanted into the right-hand side abdomen of each female BALB/c mouse.
(§2) The anti-mouse PD-1 antibody was intraperitoneally administered to the mice of the single therapy group of the anti-mouse PD-1 antibody and the combination therapy group, at a dosage of 100 µg/individual, twice a week after transplantation, from the 7th day of transplantation to the 20th day of transplantation.
Regarding the tumor volume (mm^3), the length and width of a tumor were measured by using an electronic caliper, and the tumor volume was calculated by the following formula.

[2] = tested on: mouse colorectal cancer cell line CT26; test: Test Example 4: mPGES-1 inhibitor and anti-mouse CTLA-4 antibody in combination in allograft model of mouse colorectal cancer cell line CT26; assay type: in vivo; conditions: female BALB/c mouse
Description: as §1
Under anesthesia, 3.0×10^5 cells for transplantation were subcutaneously transplanted into the right-hand side abdomen of each female BALB/c mouse.
as §2, with “anti-mouse CTLA-4” for “anti-mouse PD-1”, “group with” for “group of”, “combination” for “combination therapy”, “the 8th” for “the 7th”
Regarding the tumor volume (mm^3), the length and width of a tumor were measured by using an electronic caliper, and the tumor volume was calculated by the following formula

[3] = in combination with anti-mouse PD-1 antibody (100 µg/individual i.p. twice a week), compound 100 mg/kg orally twice a day, 7th to 20th day
[4] = used solely, 100 mg/kg (as free form) orally twice a day, 7th to 20th day of transplantation
[5] = in combination with anti-mouse CTLA-4 antibody (100 µg/individual i.p. twice a week), compound 100 mg/kg orally twice a day, 8th to 20th day
[6] = used solely, 100 mg/kg (as free substance) orally twice a day, 8th to 20th day of transplantation

SMILES | tumor growth (tumor volume) [1, 3] | tumor growth (tumor volume) [1, 4] | tumor growth (tumor volume) [2, 5] | tumor growth (tumor volume) [2, 6]
COCc1nc2c(C(=O)Nc3cccc(Cl)c3C)cc(NC(=O)c3ccccc3C(F)(F)F)cc2[nH]1.Cc1ccc(S(=O)(=O)O)cc1 [compound 1, N-(3-chloro-2-methylphenyl)-2-(methoxymethyl)-6-({[2-(trifluoromethyl)phenyl]carbonyl}amino)-1H-benzimidazole-4-carboxamide 4-methylbenzenesulfonate] | tumor growth was suppressed | did not suppress tumor growth | tumor growth was suppressed | did not suppress tumor growth
Cc1c(Cl)cccc1NC(=O)c1cc(NC(=O)c2ccccc2C(F)(F)F)cc2[nH]c(C3(C(F)(F)F)CC3)nc12 [compound 2, N-(3-chloro-2-methylphenyl)-2-[1-(trifluoromethyl)cyclopropyl]-6-({[2-(trifluoromethyl)phenyl]carbonyl}amino)-1H-benzimidazole-4-carboxamide] | tumor growth was suppressed | did not suppress tumor growth | tumor growth was suppressed | did not suppress tumor growth
